Species on record: Rattus norvegicus
Assay: DrugMatrix - Regimen: Daily Repeat
Type: toxicity, organism-based, Sprague-Dawley
Parameters: regimen Daily Repeat, gender Male, age 6-8 weeks
Conditions: in vivo, po, 2 mg/kg, route oral GAVAGE, dose level High, vehicle 100 % WATER; for ABSOLUTE BASOPHIL / ABSOLUTE EOSINOPHIL / ABSOLUTE LYMPHOCYTE / ABSOLUTE MONOCYTE / ABSOLUTE SEGMENTED NEUTROPHIL / BASOPHIL / EOSINOPHIL / ERYTHROCYTE COUNT / HEMATOCRIT / HEMOGLOBIN / LEUKOCYTE COUNT / LYMPHOCYTE / MEAN CORPUSCULAR HEMOGLOBIN / MEAN CORPUSCULAR HEMOGLOBIN CONCENTRATION / MEAN CORPUSCULAR VOLUME / MONOCYTE / NEUTROPHIL / NUCLEATED RED BLOOD CELLS / PLATELET COUNT: tissue Blood; for ALANINE AMINOTRANSFERASE / ALBUMIN / ALKALINE PHOSPHATASE / ASPARTATE AMINOTRANSFERASE / BLOOD UREA NITROGEN / CARBON DIOXIDE / CHLORIDE / CHOLESTEROL / CREATININE / GLUCOSE / LACTATE DEHYDROGENASE / LIPASE / PHOSPHORUS / POTASSIUM / SODIUM / TOTAL BILIRUBIN / TOTAL PROTEIN / URIC ACID: tissue Plasma

O=[Se]([O-])[O-].[Na+].[Na+] [SODIUM SELENITE]
ABSOLUTE BASOPHIL (120 h, time 5 day): 0 CELLS/uL
ABSOLUTE EOSINOPHIL (120 h, time 5 day): 0 CELLS/uL
ABSOLUTE LYMPHOCYTE (120 h, time 5 day): 10507.33 CELLS/uL
ABSOLUTE MONOCYTE (120 h, time 5 day): 251 CELLS/uL
ABSOLUTE SEGMENTED NEUTROPHIL (120 h, time 5 day): 875 CELLS/uL
BASOPHIL (120 h, time 5 day): 0%
EOSINOPHIL (120 h, time 5 day): 0%
ERYTHROCYTE COUNT (120 h, time 5 day): 5.43 x10E6/uL
HEMATOCRIT (120 h, time 5 day): 33.4%
HEMOGLOBIN (120 h, time 5 day): 12.4 G/DL
LEUKOCYTE COUNT (120 h, time 5 day): 11.63 x10E3/uL
LYMPHOCYTE (120 h, time 5 day): 90.33%
MEAN CORPUSCULAR HEMOGLOBIN (120 h, time 5 day): 22.87 pg
MEAN CORPUSCULAR HEMOGLOBIN CONCENTRATION (120 h, time 5 day): 37.17 G/DL
MEAN CORPUSCULAR VOLUME (120 h, time 5 day): 61.53 fL
MONOCYTE (120 h, time 5 day): 2%
NEUTROPHIL (120 h, time 5 day): 7.67%
NUCLEATED RED BLOOD CELLS (120 h, time 5 day): 0 /100WBC
PLATELET COUNT (120 h, time 5 day): 896.33 x10E3/uL
ALANINE AMINOTRANSFERASE (120 h, time 5 day): 56.33 u/L
ALBUMIN (120 h, time 5 day): 4.77 G/DL
ALKALINE PHOSPHATASE (120 h, time 5 day): 396 u/L
ASPARTATE AMINOTRANSFERASE (120 h, time 5 day): 80.67 u/L
BLOOD UREA NITROGEN (120 h, time 5 day): 12.33 mg/dL
CARBON DIOXIDE (120 h, time 5 day): 33.33 mmol/L
CHLORIDE (120 h, time 5 day): 98.33 MEQ/L
CHOLESTEROL (120 h, time 5 day): 86.33 mg/dL
CREATININE (120 h, time 5 day): 0.14 mg/dL
GLUCOSE (120 h, time 5 day): 141 mg/dL
LACTATE DEHYDROGENASE (120 h, time 5 day): 84 u/L
LIPASE (120 h, time 5 day): 8.33 u/L
PHOSPHORUS (120 h, time 5 day): 13.2 mg/dL
POTASSIUM (120 h, time 5 day): 6.3 MEQ/L
SODIUM (120 h, time 5 day): 145.1 MEQ/L
TOTAL BILIRUBIN (120 h, time 5 day): 0.2 mg/dL
TOTAL PROTEIN (120 h, time 5 day): 6.87 G/DL
URIC ACID (120 h, time 5 day): 0.67 mg/dL
ABSOLUTE BASOPHIL ([…], time 14 day): 0 CELLS/uL
ABSOLUTE EOSINOPHIL ([…], time 14 day): 217 CELLS/uL
ABSOLUTE LYMPHOCYTE ([…], time 14 day): 17297 CELLS/uL
ABSOLUTE MONOCYTE ([…], time 14 day): 361.6 CELLS/uL
ABSOLUTE SEGMENTED NEUTROPHIL ([…], time 14 day): 2204.4 CELLS/uL
BASOPHIL ([…], time 14 day): 0%
EOSINOPHIL ([…], time 14 day): 1.2%
ERYTHROCYTE COUNT ([…], time 14 day): 6.02 x10E6/uL
HEMATOCRIT ([…], time 14 day): 35.24%
HEMOGLOBIN ([…], time 14 day): 13.22 G/DL
LEUKOCYTE COUNT ([…], time 14 day): 20.08 x10E3/uL
LYMPHOCYTE ([…], time 14 day): 85.8%
MEAN CORPUSCULAR HEMOGLOBIN ([…], time 14 day): 21.98 pg
MEAN CORPUSCULAR HEMOGLOBIN CONCENTRATION ([…], time 14 day): 37.54 G/DL
MEAN CORPUSCULAR VOLUME ([…], time 14 day): 58.52 fL
MONOCYTE ([…], time 14 day): 1.8%
NEUTROPHIL ([…], time 14 day): 11.2%
NUCLEATED RED BLOOD CELLS ([…], time 14 day): 0 /100WBC
PLATELET COUNT ([…], time 14 day): 1010.8 x10E3/uL
ALANINE AMINOTRANSFERASE ([…], time 14 day): 60.2 u/L
ALBUMIN ([…], time 14 day): 4.26 G/DL
ALKALINE PHOSPHATASE ([…], time 14 day): 330.2 u/L
ASPARTATE AMINOTRANSFERASE ([…], time 14 day): 119.4 u/L
BLOOD UREA NITROGEN ([…], time 14 day): 14 mg/dL
CARBON DIOXIDE ([…], time 14 day): 22.8 mmol/L
CHLORIDE ([…], time 14 day): 104.2 MEQ/L
CHOLESTEROL ([…], time 14 day): 62.8 mg/dL
CREATININE ([…], time 14 day): 0.21 mg/dL
GLUCOSE ([…], time 14 day): 199.6 mg/dL
LACTATE DEHYDROGENASE ([…], time 14 day): 281.2 u/L
LIPASE ([…], time 14 day): 8 u/L
PHOSPHORUS ([…], time 14 day): 13.28 mg/dL
POTASSIUM ([…], time 14 day): 5.95 MEQ/L
SODIUM ([…], time 14 day): 148.62 MEQ/L
TOTAL BILIRUBIN ([…], time 14 day): 0.16 mg/dL
TOTAL PROTEIN ([…], time 14 day): 6.16 G/DL
URIC ACID ([…], time 14 day): 2.08 mg/dL
